Assay results taken from patent US20200138966A1, “BIFUNCTIONAL SMALL PEPTIDE FOR AUTOIMMUNE DIABETES” (Board of Supervisors of Louisiana State University and …, priority 2017, published 2020).

Columns and labels:
[1] = test system: NOD/LtJ T cells; details: in conjunction with SDF-1α; cited from earlier work
[2] = test system: NOD mice; details: inhibition of CXCR4 activity; cited from earlier work
[3] = test system: NOD/LtJ CD3 T cell; test: Shear mediated detachment from parallel plate flow chambers coated with recombinant Fc chimera ICAM-1 and VCAM-1; format: cell-based, mouse; details: SDF-1 (250 ng/ml) without Slit-2; FIG. 13
Experimental: FIG. 13 is a bar graph showing NOD CD3 T cell shear detachment at 1 dyne/cm^2 to adhesion molecules with SDF-1 (250 ng/ml) ±Slit-2 (20 μg/ml). *p<0.05 between indicated comparisons.
FIG. 14 is a bar graph showing NOD CD3 T cell shear detachment at 2.5 dyne/cm^2 to adhesion molecules with SDF-1 (250 ng/ml) ±Slit-2 (20 μg/ml). *p<0.05 between indicated comparisons.
Slit-2 peptide stimulates SDF-1 mediated NOD/LtJ T cell detachment: The inventors next examined whether Slit2 engagement of NOD/LtJ T cell Robo-1 could facilitate SDF-1 mediated chemorepulsion. To study this in an unambiguous way, recombinant Fc chimera endothelial cell adhesion molecules ICAM-1 and VCAM-1 was used to coat the surface of parallel plate flow chambers with or without SDF-1α to precisely control the density and presentation of adhesion molecules and chemokine for adhesive interactions.

[4] = test system: NOD CD3 T cell; test: CD3 T cell adhesion to TNF-α activated islet microvascular endothelial cells; format: cell-based, mouse; details: SDF-1α 50 ng/ml; NOD compared to NON or C57 T cells; FIG. 2
[5] = test system: human CD3 T cell; test: Shear mediated CD3 T cell detachment from fresh frozen human pancreas tissue; format: cell-based; details: SDF-1α pretreatment, physiological shear stress
Source text: FIG. 3 is a line graph showing non-diabetic human CD3 T cell shear mediated detachment from fresh frozen human pancreas tissue with or without SDF-1 pretreatment.
FIG. 4 is a line graph showing T1D human CD3 T cell detachment from fresh frozen human pancreas tissue with or without SDF-1 pretreatment. 3 non-diabetic and 3 T1D subjects <1 yr diagnosis were used for T cell isolations. *p<0.01 w/o vs with SDF-1 treatment.
SDF-1α stimulates diabetogenic T cell chemorepulsion: a novel mechanism for potential therapeutic intervention in T1D. Chemokines may be differentially expressed in T1D, which play a role in leukocyte infiltration and adhesion. SDF-1α plays a key role in leukocyte adhesion by activating leukocyte integrins to higher affinity state that promotes their clustering. Due to this effect, SDF-1α has been viewed as a universally potent chemoattractant for leukocyte recruitment at low nanomolar concentrations. However, the inventors discovered novel mechanisms of autoimmune T cell chemorepulsion responses in autoimmune NOD/LtJ diabetic mice and in human T1D T cells at SDF-1α concentrations ranging from 1-100 nM.

[6] = test system: NOD/LtJ CD3 T cells; test: Hydrodynamic shear detachment assay of T cells off TNF-α activated islet endothelial cells; format: cell-based, mouse
Source text: T cell Robo-1 expression governs SDF-1 mediated detachment: The inventors examined whether Robo-1 immuno-neutralization could affect SDF-1α mediated chemorepulsion of NOD/LtJ CD3 T cells. FIGS. 5-7 show results from hydrodynamic shear detachment assays of T cells off of TNF-α activated islet endothelial cells. FIG. 5 illustration indicates molecular events. FIGS. 6 and 7 illustrate the effect of Robo-1 antibody on T cell detachment at low and higher shear rates (1 and 2.5 dyne/cm^2, respectively).

Compound: LRRIDLSNN [LRR-8, Slit-2 peptide containing LRR domain]
- attachment of NOD/LtJ T cells from recombinant endothelial cell adhesion molecules [1]: can inhibit attachment

Compound: c1cc(CN2CCCNCCNCCCNCC2)ccc1CN1CCCNCCNCCCNCC1 [AMD3100]
- adoptive transfer of diabetes [2]: exacerbated adoptive transfer of diabetes

Compound: LNLLSLYDN [LRR-11, Slit-2 peptide containing LRR domain]
- attachment of NOD/LtJ T cells from recombinant endothelial cell adhesion molecules [1]: can inhibit attachment

Compound: LQLLLLNAN [LRR-10, Slit-2 peptide containing LRR domain]
- attachment of NOD/LtJ T cells from recombinant endothelial cell adhesion molecules [1]: can inhibit attachment

Compound: TITEIRLEQN [LRR-7, Slit-2 peptide containing LRR domain]
- attachment of NOD/LtJ T cells from recombinant endothelial cell adhesion molecules [1]: can inhibit attachment

Compound: SDF-1α: chemokine, ligand of CXCR4, used to treat T cells or coat flow chambers (AYWKENKEQ)
- NOD/LtJ CD3 T cell shear mediated detachment from ICAM-1 and VCAM-1 [3]: even more resistant to shear detachment
- NOD CD3 T cell adhesion to TNF-α activated islet endothelial cells [4]: selectively prevents NOD CD3 T cell adhesion
- human T1D T cell detachment from fresh human pancreas tissue ([5]; T1D subjects, FIG. 4): selectively stimulated human T1D T cell detachment
- T cell detachment of non-T1D subjects from fresh human pancreas tissue ([5]; non-diabetic subjects, FIG. 3): not T cell detachment of non-T1D subjects
- NOD T cell shear detachment ([6]; 1 dyne/cm^2, FIG. 6): stimulates NOD T cell shear detachment
- NOD T cell shear detachment ([6]; 2.5 dynes/cm^2, FIG. 7): stimulates NOD T cell shear detachment

Compound: LNSLVLYGN [LRR-9, Slit-2 peptide containing LRR domain]
- attachment of NOD/LtJ T cells from recombinant endothelial cell adhesion molecules [1]: can inhibit attachment
